Assay results from article PMC8470367, “Antihypertensive and Probiotic Effects of Hidakakombu (Saccharina angustata) Fermented by Lacticaseibacillus casei 001” (Foods, 2021).
≈ marks a conversion by molar mass, not a printed value.

Molecular target: T1, angiotensin-converting enzyme (ACE)
T1 construct: enzyme of the commercial ACE-kit WST (Dojin / Dojindo)
Test: ACE-kit WST, microplate absorbance
Format: biochemical
Conditions: measured on HPLC fraction Fr. B isolated from fermented kelp extract, identified as D-Trp; pH and temperature not given

Work on `N[C@H](Cc1c[nH]c2ccccc12)C(=O)O` [D-Trp] yielded an IC50 of 73 mg/L (≈ 357 µM).
